Experimental findings from patent US9682931B2, “Aryloyl(oxy or amino)pentafluorosulfanylbenzene compound, pharmaceutically acceptable salt thereof, and prodrugs thereof” (UBE INDUSTRIES, LTD., priority 2013, dated 2017) are described below.

In brackets after ≈: the same amount, converted by molar mass. Counter-ions that a name gives are not always drawn.

The first experiment deals with K562 human leukemia-derived cell lines. Put plainly: K562 human leukemia cell-proliferation inhibition test. Format: cell-based. The settings on record: Homo sapiens, K562, 72 h. On the procedure: K562 Human Leukemia Cell-Proliferation Inhibition Test
A cell proliferation inhibition test using K562 cells was performed. The activity in the presence of a test substance was compared to the activity in the presence of green tea polyphenol (GTP). The materials used in the test are as follows.
Cells: K562 human leukemia-derived cell lines (DS Pharma Biomedical Co., Ltd.)
Control Substance: Green Tea Polyphenols, abbreviation: GTP (LKT Laboratories, Inc.)
Culture solution: 10% equine serum-supplemented RPMI1640 medium
A test substance and a control substance were used by dissolving each of them in DMSO. To a solution (0.99 mL) containing K562 cells in a cell concentration of 20,000 cells/mL, a test substance solution or a control substance solution (0.01 mL) was added and the cells were cultured. Seventy two hours later, a part of the cells was stained with trypan blue and viable cells were counted by a counting chamber.
In Table 2, “IC50” denotes the sample concentration inhibiting 50% of cell proliferation
Take `O=C(Nc1ccc(S(F)(F)(F)(F)F)cc1)c1ccccc1` [Compound 1, 4-benzoylaminopentafluorosulfanylbenzene]: it took 1.5 µg/mL (≈ 4.64 µM) to reach half-maximal inhibition (IC50).
Same read-out and setting: to `C=CC(=O)Nc1ccc(S(F)(F)(F)(F)F)cc1` [Compound 31, 4-acryloylaminopentafluorosulfanylbenzene] belongs 0.88 µg/mL (≈ 3.22 µM); to `C=CC(=O)Nc1cccc(S(F)(F)(F)(F)F)c1` [Compound 32, 3-acryloylaminopentafluorosulfanylbenzene], 4.6 µg/mL (≈ 16.8 µM); to `Nc1ccc(C(=O)Nc2ccc(S(F)(F)(F)(F)F)cc2)cc1` [Compound 63, 4-(4-aminobenzoylamino)pentafluorosulfanylbenzene hydrochloride salt], 0.85 µg/mL.
On the same count and under the same terms, to `O=C(/C=C/c1ccc2c(c1)OCO2)Nc1ccc(S(F)(F)(F)(F)F)cc1` [Compound 19, 4-(3,4-methylenedioxycinnamoylamino)pentafluorosulfanylbenzene] belongs 0.66 µg/mL (≈ 1.68 µM).

The experiment is the same for the next values; noted with them: Homo sapiens, K562, 72 h, K562 cells, 72 hours, viable cells counted with trypan blue; read-out: IC50.
For the compound `COc1cc(C(=O)Nc2ccc(S(F)(F)(F)(F)F)cc2)ccc1N` [Compound 60, 4-(4-amino-3-methoxybenzoylamino)pentafluorosulfanylbenzene], the IC50 is 0.1 µg/mL (≈ 0.271 µM).
On the same count and under the same terms, to `C=CC(C)Oc1ccc(/C=C/C(=O)Nc2ccc(S(F)(F)(F)(F)F)cc2)cc1OC` (stereo not drawn) [Compound 44, 4-(4-(1-methyl-2-propenyloxy)-3-methoxycinnamoylamino)pentafluorosulfanylbenzene] belongs 1 µg/mL (≈ 2.22 µM).
As to `O=C(Nc1ccc(S(F)(F)(F)(F)F)cc1)c1ncc[nH]1` [Compound 78, 4-(imidazol-2-yl)carbonylaminopentafluorosulfanylbenzene], the IC50 came to 3.4 µg/mL (≈ 10.9 µM).
Still for that read-out and setting: the figure for `C/C=C/COc1ccc(/C=C/C(=O)Nc2ccc(S(F)(F)(F)(F)F)cc2)cc1OC` [Compound 42, 4-(4-(2-butenyloxy)-3-methoxycinnamoylamino)pentafluorosulfanylbenzene] is 1.7 µg/mL (≈ 3.78 µM); for `O=C(Nc1ccc(S(F)(F)(F)(F)F)cc1)c1ccccn1` [Compound 71, 4-(pyridin-2-yl)carbonylaminopentafluorosulfanylbenzene] it is 4.4 µg/mL (≈ 13.6 µM); for `C=CC(C)(C)Oc1cccc(C(=O)Nc2ccc(S(F)(F)(F)(F)F)cc2)c1` [Compound 48, 4-(3-(1,1-dimethyl-2-propenyloxy)benzoylamino)pentafluorosulfanylbenzene] it is 1.9 µg/mL (≈ 4.66 µM).
The same measure, in the same setting: to `COc1ccc(/C=C/C(=O)Nc2ccc(S(F)(F)(F)(F)F)cc2)cc1O` [Compound 52, 4-(3-hydroxy-4-methoxycinnamoylamino)pentafluorosulfanylbenzene] belongs 0.28 µg/mL (≈ 0.708 µM).
Turning to `COc1cc(/C=C/C(=O)Nc2ccc(S(F)(F)(F)(F)F)cc2)ccc1O` [Compound 21, 4-(4-hydroxy-3-methoxycinnamoylamino)pentafluorosulfanylbenzene], the IC50 worked out at 0.93 µg/mL (≈ 2.35 µM).
The same measure, in the same setting: the figure for `COc1cc(/C=C/C(=O)Nc2ccc(S(F)(F)(F)(F)F)cc2)ccc1OCC=C(C)C` [Compound 37, 4-(4-(3-methyl-2-butenyloxy)-3-methoxycinnamoylamino)pentafluorosulfanylbenzene] is 4.8 µg/mL (≈ 10.4 µM); for `O=C(/C=C/c1ccc(O)cc1O)Nc1ccc(S(F)(F)(F)(F)F)cc1` [Compound 51, 4-(2,4-dihydroxycinnamoylamino)pentafluorosulfanylbenzene] it is 1.2 µg/mL (≈ 3.15 µM).
Still for that read-out and setting: to `CC(=O)Oc1cc(/C=C/C(=O)Nc2ccc(S(F)(F)(F)(F)F)cc2)cc(OC(C)=O)c1OC(C)=O` [Compound 25, 4-(3,4,5-triacetoxycinnamoylamino)pentafluorosulfanylbenzene] belongs 6.3 µg/mL (≈ 12 µM).
On the same count and under the same terms, to `O=C(Nc1ccc(S(F)(F)(F)(F)F)cc1)c1ncccc1O` [Compound 68, 4-(3-hydroxypyridin-2-yl)carbonylaminopentafluorosulfanylbenzene] belongs 4.2 µg/mL (≈ 12.3 µM); to `Nc1ccc(C(=O)Nc2ccc(S(F)(F)(F)(F)F)cc2)cc1` [Compound 61, 4-(4-aminobenzoylamino)pentafluorosulfanylbenzene], 0.086 µg/mL (≈ 0.254 µM); to `O=C(Nc1ccc(S(F)(F)(F)(F)F)cc1)c1cccc(O)c1` [Compound 65, 4-(3-hydroxybenzoylamino)pentafluorosulfanylbenzene], 0.92 µg/mL (≈ 2.71 µM).
For `O=C(Nc1ccc(S(F)(F)(F)(F)F)cc1)c1ccc([N+](=O)[O-])cc1` [Compound 62, 4-(4-nitrobenzoylamino)pentafluorosulfanylbenzene], the IC50 turned out to be 0.78 µg/mL (≈ 2.12 µM).
On to `C=CCc1cc(C(=O)Nc2ccc(S(F)(F)(F)(F)F)cc2)cc(OC)c1O` [Compound 30, 4-(4-hydroxy-5-(2-propenyl)-3-methoxybenzoylamino)pentafluorosulfanylbenzene], for which the IC50 worked out at 0.9 µg/mL (≈ 2.2 µM).
The same measure, in the same setting: the figure for `C=CCc1cc(/C=C/C(=O)Nc2ccc(S(F)(F)(F)(F)F)cc2)cc(OC)c1O` [Compound 46, 4-(4-hydroxy-5-(2-propenyl)-3-methoxycinnamoylamino)pentafluorosulfanylbenzene] is 2.5 µg/mL (≈ 5.74 µM); for `C=CCOc1cccc(C(=O)Nc2ccc(S(F)(F)(F)(F)F)cc2)c1` [Compound 64, 4-(3-allyloxybenzoylamino)pentafluorosulfanylbenzene] it is 1.1 µg/mL (≈ 2.9 µM); for `O=C(Nc1ccc(S(F)(F)(F)(F)F)cc1)c1ccc(F)c(O)c1` [Compound 58, 4-(3-hydroxy-4-fluorobenzoylamino)pentafluorosulfanylbenzene] it is 5.3 µg/mL (≈ 14.8 µM).
`C=CCOc1ccc(C(=O)Nc2ccc(S(F)(F)(F)(F)F)cc2)cc1OC` [Compound 28, 4-(4-(2-propenyloxy)-3-methoxybenzoylamino)pentafluorosulfanylbenzene]: the IC50 stood at 0.8 µg/mL (≈ 1.95 µM).
Take `O=C(Nc1ccc(S(F)(F)(F)(F)F)cc1)c1cccc(O)n1` [Compound 66, 4-(2-hydroxypyridin-6-yl)carbonylaminopentafluorosulfanylbenzene]: the IC50 worked out at 2.3 µg/mL (≈ 6.76 µM).
With `O=C(Nc1ccc(S(F)(F)(F)(F)F)cc1)c1ccncc1` [Compound 72, 4-(pyridin-4-yl)carbonylaminopentafluorosulfanylbenzene], the IC50 was 0.1 µg/mL (≈ 0.308 µM).
The same measure, in the same setting: to `O=C(Oc1cccc(S(F)(F)(F)(F)F)c1)c1cc(O)c(O)c(O)c1` [Compound 8, 3-(3,4,5-trihydroxybenzoyloxy)pentafluorosulfanylbenzene] belongs 8.5 µg/mL (≈ 22.8 µM); to `O=C(Nc1ccc(S(F)(F)(F)(F)F)cc1)c1ncccn1` [Compound 70, 4-(pyrimidin-2-yl)carbonylaminopentafluorosulfanylbenzene], 1.5 µg/mL (≈ 4.61 µM); to `O=C(Nc1ccc(S(F)(F)(F)(F)F)cc1)c1ccncn1` [Compound 73, 4-(pyrimidin-4-yl)carbonylaminopentafluorosulfanylbenzene], 2.3 µg/mL (≈ 7.07 µM).
Same read-out and setting: to `O=C(Nc1ccc(S(F)(F)(F)(F)F)cc1)n1cccc1` [Compound 80, 4-(pyrrol-1-yl)carbonylaminopentafluorosulfanylbenzene] belongs 4.9 µg/mL (≈ 15.7 µM); to `O=C(Nc1ccc(S(F)(F)(F)(F)F)cc1)c1ccncc1F` [Compound 75, 4-(3-fluoropyridin-4-yl)carbonylaminopentafluorosulfanylbenzene], 2 µg/mL (≈ 5.84 µM).
The same measure, in the same setting: the figure for `O=C(Nc1ccc(S(F)(F)(F)(F)F)cc1)c1cc2cc(O)c(O)cc2oc1=O` [Compound 74, 4-(6,7-dihydroxycoumarin-3-yl)carbonylaminopentafluorosulfanylbenzene] is 5 µg/mL (≈ 11.8 µM).
For the compound `O=C(/C=C/c1cc(O)c(O)c(O)c1)Nc1ccc(S(F)(F)(F)(F)F)cc1` [Compound 24, 4-(3,4,5-trihydroxycinnamoylamino)pentafluorosulfanylbenzene], the IC50 is 14 µg/mL (≈ 35.2 µM).
The same measure, in the same setting: to `C=CCOc1ccc(/C=C/C(=O)Nc2ccc(S(F)(F)(F)(F)F)cc2)cc1OC` [Compound 38, 4-(4-(2-propenyloxy)-3-methoxycinnamoylamino)pentafluorosulfanylbenzene] belongs 0.6 µg/mL (≈ 1.38 µM).
In the case of `COc1cc(/C=C/C(=O)Nc2ccc(S(F)(F)(F)(F)F)cc2)cc(OC)c1O` [Compound 53, 4-(4-hydroxy-3,5-dimethoxycinnamoylamino)pentafluorosulfanylbenzene], the IC50 came to 0.9 µg/mL (≈ 2.12 µM).
Take `COc1ccc(/C=C/C(=O)Nc2ccc(S(F)(F)(F)(F)F)cc2)cc1OCC=C(C)C` [Compound 41, 4-(3-(3-methyl-2-butenyloxy)-4-methoxycinnamoylamino)pentafluorosulfanylbenzene]: the IC50 was 0.81 µg/mL (≈ 1.75 µM).
The same measure, in the same setting: to `COc1cc(/C=C/C(=O)Nc2ccc(S(F)(F)(F)(F)F)cc2)cc(OC)c1OCC=C(C)C` [Compound 43, 4-(4-(3-methyl-2-butenyloxy)-3,5-dimethoxycinnamoylamino)pentafluorosulfanylbenzene] belongs 2.8 µg/mL (≈ 5.67 µM); to `O=C(Nc1ccc(S(F)(F)(F)(F)F)cc1)c1ccc(CO)o1` [Compound 33, 4-(5-hydroxymethylfuran-2-yl)carbonylaminopentafluorosulfanylbenzene], 2.7 µg/mL (≈ 7.87 µM); to `C/C=C/Cc1cc(/C=C/C(=O)Nc2ccc(S(F)(F)(F)(F)F)cc2)cc(OC)c1O` [Compound 47, 4-(4-hydroxy-5-(2-butenyl)-3-methoxycinnamoylamino)pentafluorosulfanylbenzene], 3.5 µg/mL (≈ 7.79 µM).

The experiment is the same for the next values; noted with them: K562 cells, 72 hours, viable cells counted with trypan blue.
Turning to “4-(3,5-dihydroxybenzoylamino)pentafluorosulfanylbenzene [Compound 50]”, the IC50 was 3.5 µg/mL.
On the same count and under the same terms, to `O=C(/C=C/c1ccc(O)c(O)c1)Nc1ccc(S(F)(F)(F)(F)F)cc1` [Compound 56, 4-(3,4-dihydroxycinnamoylamino)pentafluorosulfanylbenzene] belongs 0.83 µg/mL (≈ 2.18 µM).

One may read the IC50 as the concentration that gives 50% inhibition.
